US11613531B2, “Inhibitors of RHO associated coiled-coil containing protein kinase” (Kadmon Corporation, LLC, priority 2017, dated 2023)
Read-outs that look alike come from different tables or passages of the source. One block for each compound: values may come before it.

What was measured:
[1] = system: ppMlc (T18/S19) levels in A7R5 cells; assay: A7R5 in-cell ELISA (pMLC); type: cell-based, Rat; conditions: for inhibition at 10 µM / IC50: Rattus norvegicus, A7R5, A7R5 cells; for inhibition at 10 µM: read-out: pMLC % inh A7R5 @ [conc]; for IC50: ppMlc (T18/S19)
Experimental: Determination of Compounds ROCK Inhibitory Activity in A7R5Cells.
Rat aortic smooth muscle cell line, A7R5, cells were seeded with density of 5,000 cells/well in a 96-well plates for 24 hours and subsequently treated for 90 min with testing compounds. Cells were then fixed and processed according to the In-Cell ELISA Colorimetric Detection Kit manual (Thermo Scientific).
An A7R5 in-cell Elisa assay was performed. A7R5 cells were treated with 9 points 2 fold serial dilution of compounds and ppMlc (T18/S19) levels were determined to calculate cellular IC50 values of the compounds. Compounds of the invention gave in cell IC50s under 100 nM.
(§1) In vitro activities for the compounds were measured with Z′-lyte kinase kit (ThermoFisher Scientific). The percent inhibition rate was calculated by normalizing the kinase activity value obtained with 1 μM compound treatment against DMSO control value and then applied to the formula, [1-(compound/DMSO)]×100%. IC50s were calculated using the nonlinear regression curve fit function of the GraphPad Prism software with kinase activities data measured with 9 points 2-fold serial dilution of compounds treatment. In cell pMLC IC50s were calculated with data obtained from A7R5 cell experiments. A7R5 cells were treated with 9 points 2-fold serial dilution of compounds and ppMlc (T18/S19) levels were determined to calculate cellular IC50 values of the compounds using the nonlinear regression curve fit function of the GraphPad Prism software. NIH3T3 cells stably expressing ACTA2-promoter-driven-luciferase were applied to measure ROCK compounds functional IC50s in cells. Cells were plated in 96 well plates to confluence and treated with 9 points serial dilution of compounds in combination with TGFβ1 for 24 hr. Luciferase activities were measured and compound's IC50s were calculated using the nonlinear regression curve fit function of the GraphPad Prism software.

[2] = target: Recombinant ROCK2 (amino acids 1-552) (Homo sapiens (Human), UniProt O75116); assay: Z′-Lyte kinase assay, ROCK2; type: biochemical; conditions: for inhibition at 1 µM: 1 μM compound; for inhibition at 1 µM / inhibition at 0.5 µM: read-out: ROCK2 % inh. @ [conc]; for inhibition at 0.5 µM: 0.5 μM compound
Sequence of Recombinant ROCK2 (amino acids 1-552) (O75116 1-552): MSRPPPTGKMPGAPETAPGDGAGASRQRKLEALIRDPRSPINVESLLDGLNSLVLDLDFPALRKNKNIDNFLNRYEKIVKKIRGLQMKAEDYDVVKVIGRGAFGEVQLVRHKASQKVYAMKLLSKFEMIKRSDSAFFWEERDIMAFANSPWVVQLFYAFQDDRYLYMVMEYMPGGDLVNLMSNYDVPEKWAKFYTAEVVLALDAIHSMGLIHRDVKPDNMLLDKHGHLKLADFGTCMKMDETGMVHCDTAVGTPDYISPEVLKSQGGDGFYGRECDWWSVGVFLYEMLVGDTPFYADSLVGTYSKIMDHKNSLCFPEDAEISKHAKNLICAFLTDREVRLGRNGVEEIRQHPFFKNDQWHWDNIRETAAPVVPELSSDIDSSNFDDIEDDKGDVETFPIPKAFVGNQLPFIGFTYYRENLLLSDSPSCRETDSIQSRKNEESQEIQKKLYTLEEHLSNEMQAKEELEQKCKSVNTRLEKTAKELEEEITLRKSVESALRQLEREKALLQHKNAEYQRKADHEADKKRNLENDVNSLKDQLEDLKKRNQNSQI
Experimental: Determination of Compound's ROCK Inhibitory Activity In Vitro (Z'Lyte Assay).
Recombinant ROCK1 (amino acids 1-535) and ROCK2 (amino acids 1-552) proteins were purchased from ThermoFisher Scientific. Compound's activities were measured by Z′-lyte kinase kit (ThermoFisher Scientific) and IC50 was calculated
as §1

IC50 [1]: 312 nM
IC50 ([2]; 9 points 2-fold serial dilution): 0.139 µM
SMILES: Clc1cnc(N2CCCNCC2)nc1Nc1ccc2[nH]ncc2c1 [Example 4, N-(5-chloro-2-(1,4-diazepan-1-yl)pyrimidin-4-yl)-1H-indazol-5-amine]
inhibition at 10 µM ([1]; 10 μM compound): 95.3%

IC50 [1]: 1800 nM
inhibition at 1 µM [2]: 85.7%
SMILES: c1ccc2c(Nc3ccc4[nH]ncc4c3)nc(N3CCCNCC3)nc2c1 [Example 6, 2-(1,4-diazepan-1-yl)-N-(1H-indazol-5-yl)quinazolin-4-amine]
inhibition at 10 µM ([1]; 10 μM compound): 94.6%

IC50 [1]: 1600 nM
inhibition at 1 µM [2]: 83.3%
SMILES: Cc1nc(N2CCCNCC2)nc(Nc2ccc3[nH]ncc3c2)c1C [Example 8, N-(2-(1,4-diazepan-1-yl)-5,6-dimethylpyrimidin-4-yl)-1H-indazol-5-amine]
inhibition at 10 µM ([1]; 10 μM compound): 89%

IC50 [1]: 1200 nM
inhibition at 1 µM [2]: 98.7%
SMILES: c1cc2[nH]ncc2cc1Nc1nc(N2CCCNCC2)nc2c1CCCC2 [Example 9, 2-(1,4-diazepan-1-yl)-N-(1H-indazol-5-yl)-5,6,7,8-tetrahydroquinazolin-4-amine]
inhibition at 10 µM ([1]; 10 μM compound): 93.5%

IC50 [2]: > 10 µM
SMILES: c1cc(Nc2ccc3[nH]ncc3c2)nc(N2CCOCC2)n1 [Example 33, N-(2-morpholinopyrimidin-4-yl)-1H-indazol-5-amine]

inhibition at 1 µM [2]: 10.5%
SMILES: Fc1cnc(N2CC(C3CCNCC3)c3ccccc32)nc1Nc1ccc2[nH]ncc2c1 (stereo not shown) [Example 175, N-(5-fluoro-2-(3-(piperidin-4-yl)indolin-1-yl)pyrimidin-4-yl)-1H-indazol-5-amine]

SMILES: OC1CC2CCC(C1)N2c1nccc(Nc2ccc3[nH]ncc3c2)n1 (stereo not shown) [Example 223, 8-(4-((1H-indazol-5-yl)amino)pyrimidin-2-yl)-8-azabicyclo[3.2.1]octan-3-ol]
IC50 [2]: 0.0158 µM

SMILES: c1ccc(C2CN(c3nccc(Nc4ccc(-c5cn[nH]c5)cc4)n3)CCN2)cc1 (stereo not shown) [Example 260, N-(4-(1H-pyrazol-4-yl)phenyl)-2-(3-phenylpiperazin-1-yl)pyrimidin-4-amine]
inhibition at 10 µM ([1]; 10 μM compound): 18%

IC50 [1]: 3650 nM
SMILES: c1cc(-c2cn[nH]c2)ccc1Nc1nc(N2CCCNCC2)nc2c1COC2 [Example 262, N-(4-(1H-pyrazol-4-yl)phenyl)-2-(1,4-diazepan-1-yl)-5,7-dihydrofuro[3,4-d]pyrimidin-4-amine]
inhibition at 10 µM ([1]; 10 μM compound): 87%

IC50 [1]: 3150 nM
SMILES: Cc1nc(N2CCCNCC2)nc(Nc2ccc(-c3cn[nH]c3)cc2)c1C [Example 266, N-(4-(1H-pyrazol-4-yl)phenyl)-2-(1,4-diazepan-1-yl)-5,6-dimethylpyrimidin-4-amine]
inhibition at 10 µM ([1]; 10 μM compound): 74%

IC50 [1]: 3720 nM
SMILES: c1ccc2c(Nc3ccc(-c4cn[nH]c4)cc3)nc(N3CCCNCC3)nc2c1 [Example 268, N-(4-(1H-pyrazol-4-yl)phenyl)-2-(1,4-diazepan-1-yl)quinazolin-4-amine]
inhibition at 10 µM ([1]; 10 μM compound): 63.7%

SMILES: c1cc(-c2ccc(Nc3nc(N4C5CNCC4C5)nc4c3CNC4)cc2)ccn1 [Example 292, 2-(3,6-diazabicyclo[3.1.1]heptan-6-yl)-N-(4-(pyridin-4-yl)phenyl)-6,7-dihydro-5H-pyrrolo[3,4-d]pyrimidin-4-amine]
inhibition at 0.5 µM [2]: 10%

SMILES: Cc1c(Nc2nc(N3C4CNCC3C4)ncc2Cl)ccc2[nH]ncc12 [Example 293, N-(2-(3,6-diazabicyclo[3.1.1]heptan-6-yl)-5-chloropyrimidin-4-yl)-4-methyl-1H-indazol-5-amine]
inhibition at 0.5 µM [2]: 1%

SMILES: Cc1c(Nc2nc(N3C4CCC3CNC4)ncc2Cl)ccc2[nH]ncc12 [Example 294, N-(2-(3,8-diazabicyclo[3.2.1]octan-8-yl)-5-chloropyrimidin-4-yl)-4-methyl-1H-indazol-5-amine]
inhibition at 0.5 µM [2]: 0%

SMILES: c1cc(-c2ccc(Nc3nc(N4C5CNCC4C5)nc4c3COCC4)cc2)ccn1 [Example 311, 2-(3,6-diazabicyclo[3.1.1]heptan-6-yl)-N-(4-(pyridin-4-yl)phenyl)-7,8-dihydro-5H-pyrano[4,3-d]pyrimidin-4-amine]
IC50 [2]: > 1 µM

SMILES: c1cc(-c2ccc(Nc3nc(N4C5CNCC4C5)nc4c3COC4)cc2)ccn1 [Example 312, 2-(3,6-diazabicyclo[3.1.1]heptan-6-yl)-N-(4-(pyridin-4-yl)phenyl)-5,7-dihydrofuro[3,4-d]pyrimidin-4-amine]
IC50 [2]: > 1 µM

SMILES: Cc1cc2[nH]ncc2cc1Nc1nc(N2C3CCC2CNC3)ncc1Cl [Example 318, N-(2-(3,8-diazabicyclo[3.2.1]octan-8-yl)-5-chloropyrimidin-4-yl)-6-methyl-1H-indazol-5-amine]
inhibition at 0.5 µM [2]: 50%

inhibition at 0.5 µM [2]: 25%
SMILES: Clc1cnc(N2CC3CNCC(C2)O3)nc1Nc1ccc2[nH]ncc2c1 [Example 325, N-(2-((1,5)-9-oxa-3,7-diazabicyclo[3.3.1]nonan-3-yl)-5-chloropyrimidin-4-yl)-1H-indazol-5-amine]

SMILES: c1ccc2c(Nc3ccc4[nH]ncc4c3)nc(N3C4CCC3CNC4)nc2c1 [Example 330, 2-(3,8-diazabicyclo[3.2.1]octan-8-yl)-N-(1H-indazol-5-yl)quinazolin-4-amine]
IC50 [2]: 0.011 µM

IC50 [2]: > 1 µM
SMILES: CN(C)C1CC2CC1CN2c1ncc(F)c(Nc2ccc3[nH]ncc3c2)n1 (stereo not shown) [Example 335, N-(2-(5-(dimethylamino)-2-azabicyclo[2.2.1]heptan-2-yl)-5-fluoropyrimidin-4-yl)-1H-indazol-5-amine]

SMILES: CN(C)C1CC2CCC(C1)N2c1nccc(Nc2ccc3[nH]ncc3c2)n1 (stereo not shown) [Example 337, N-(2-(3-(dimethylamino)-8-azabicyclo[3.2.1]octan-8-yl)pyrimidin-4-yl)-1H-indazol-5-amine]
IC50 [2]: > 1 µM

SMILES: c1cc(Nc2ccnc(N3CCNCC3)n2)cc(-c2ccncc2)c1 [Example 345, 2-(piperazin-1-yl)-N-(3-(pyridin-4-yl)phenyl)pyrimidin-4-amine]
inhibition at 10 µM ([1]; 10 μM compound): 23.7%

SMILES: O=c1ccc(-c2ccc(Nc3ccnc(N4CCNCC4)n3)cc2)c[nH]1 [Example 349, 5-(4-((2-(piperazin-1-yl)pyrimidin-4-yl)amino)phenyl)pyridin-2(1H)-one]
inhibition at 10 µM ([1]; 10 μM compound): 4.21%

SMILES: Nc1nnc(-c2ccc(Nc3ccnc(N4CCNCC4)n3)cc2)o1 [Example 362, 5-(4-((2-(piperazin-1-yl)pyrimidin-4-yl)amino)phenyl)-1,3,4-oxadiazol-2-amine]
inhibition at 10 µM ([1]; 10 μM compound): 5.14%

SMILES: c1cc(Nc2ccc(-c3cncs3)cc2)nc(N2CCNCC2)n1 [Example 363]
pMLC % inh A7R5 @ [conc] ([1]; A7R5 cells, 10 μM compound): 10.22%

SMILES: O=c1[nH]c2ccc(Nc3ccnc(N4CCNCC4)n3)cc2[nH]1 [Example 364, 5-((2-(piperazin-1-yl)pyrimidin-4-yl)amino)-1,3-dihydro-2H-benzo[d]imidazol-2-one]
inhibition at 10 µM ([1]; 10 μM compound): 6.18%

SMILES: c1cc(Nc2ccc(-c3ccnc4[nH]cnc34)cc2)nc(N2CCNCC2)n1 [Example 366, N-(4-(3H-imidazo[4,5-b]pyridin-7-yl)phenyl)-2-(piperazin-1-yl)pyrimidin-4-amine]
inhibition at 10 µM ([1]; 10 μM compound): 4.95%

SMILES: c1cc(Nc2ccc(-c3nnco3)cc2)nc(N2CCNCC2)n1 [Example 367, N-(4-(1,3,4-oxadiazol-2-yl)phenyl)-2-(piperazin-1-yl)pyrimidin-4-amine]
inhibition at 10 µM ([1]; 10 μM compound): 7.2%

SMILES: c1cc(Nc2cnc3[nH]ccc3c2)nc(N2CCNCC2)n1 [Example 369, N-(2-(piperazin-1-yl)pyrimidin-4-yl)-1H-pyrrolo[2,3-b]pyridin-5-amine]
inhibition at 10 µM ([1]; 10 μM compound): 0.9%
